According to ChEMBL document CHEMBL5724914, “Linking interpersonal differences in gut microbiota composition and drug biotransformation activity” (2024):

How the values were obtained:
[1] = human gut metagenome, 24 h, 2 µM
[2] = human gut metagenome, 24 h, 2 µM; remark: listed apart in the source
[3] = The drug is tested on Z-004 corresponding to metagenome with ENA study accession number: PRJEB37062 and ENA sample accession number: ERS12561804 for biotransformation under anaerobic condition. The drug concentrations were measured over 9 timepoints collected between 0 and 24 hours of incubation by liquid-chromatography-coupled mass spectrometry (LC–MS); details: 2 µM
[4] = The drug is tested on WLS-039 corresponding to human gut metagenome with ENA study accession number: PRJEB37062 and ENA sample accession number: ERS12561746 for biotransformation under anaerobic condition. The drug concentrations were measured over 9 timepoints collected between 0 and 24 hours of incubation by liquid-chromatography-coupled mass spectrometry (LC–MS); details: 2 µM
[5] = The drug is tested on WLS-086 corresponding to human gut metagenome with ENA study accession number: PRJEB37062 and ENA sample accession number: ERS12561752 for biotransformation under anaerobic condition. The drug concentrations were measured over 9 timepoints collected between 0 and 24 hours of incubation by liquid-chromatography-coupled mass spectrometry (LC–MS); details: 2 µM
[6] = The drug is tested on WLS-090 corresponding to human gut metagenome with ENA study accession number: PRJEB37062 and ENA sample accession number: ERS12561753 for biotransformation under anaerobic condition. The drug concentrations were measured over 9 timepoints collected between 0 and 24 hours of incubation by liquid-chromatography-coupled mass spectrometry (LC–MS); details: 2 µM
[7] = The drug is tested on Z-025 corresponding to rabbit gut metagenome with ENA study accession number: PRJEB37062 and ENA sample accession number: ERS12561824 for biotransformation under anaerobic condition. The drug concentrations were measured over 9 timepoints collected between 0 and 24 hours of incubation by liquid-chromatography-coupled mass spectrometry (LC–MS); details: 2 µM
[8] = human gut metagenome, 24 h, 2 µM; remark: listed apart in the source
[9] = human gut metagenome, 24 h, 2 µM; remark: listed apart in the source
[10] = human gut metagenome, 24 h, 2 µM; remark: listed apart in the source
[11] = The drug is tested on Z-030 corresponding to mouse gut metagenome with ENA study accession number: PRJEB37062 and ENA sample accession number: ERS12561829 for biotransformation under anaerobic condition. The drug concentrations were measured over 9 timepoints collected between 0 and 24 hours of incubation by liquid-chromatography-coupled mass spectrometry (LC–MS); details: 2 µM
[12] = The drug is tested on WLS-310 corresponding to human gut metagenome with ENA study accession number: PRJEB37062 and ENA sample accession number: ERS12561785 for biotransformation under anaerobic condition. The drug concentrations were measured over 9 timepoints collected between 0 and 24 hours of incubation by liquid-chromatography-coupled mass spectrometry (LC–MS); details: 2 µM
[13] = human gut metagenome, 24 h, 2 µM; remark: listed apart in the source
[14] = The drug is tested on Z-008 corresponding to metagenome with ENA study accession number: PRJEB37062 and ENA sample accession number: ERS12561808 for biotransformation under anaerobic condition. The drug concentrations were measured over 9 timepoints collected between 0 and 24 hours of incubation by liquid-chromatography-coupled mass spectrometry (LC–MS); details: 2 µM
[15] = human gut metagenome, 24 h, 2 µM; remark: listed apart in the source
[16] = The drug is tested on Z-005 corresponding to metagenome with ENA study accession number: PRJEB37062 and ENA sample accession number: ERS12561805 for biotransformation under anaerobic condition. The drug concentrations were measured over 9 timepoints collected between 0 and 24 hours of incubation by liquid-chromatography-coupled mass spectrometry (LC–MS); details: 2 µM
[17] = human gut metagenome, 24 h, 2 µM; remark: listed apart in the source
[18] = The drug is tested on WLS-098 corresponding to human gut metagenome with ENA study accession number: PRJEB37062 and ENA sample accession number: ERS12561754 for biotransformation under anaerobic condition. The drug concentrations were measured over 9 timepoints collected between 0 and 24 hours of incubation by liquid-chromatography-coupled mass spectrometry (LC–MS); details: 2 µM
[19] = The drug is tested on Z-016 corresponding to mouse gut metagenome with ENA study accession number: PRJEB37062 and ENA sample accession number: ERS12561815 for biotransformation under anaerobic condition. The drug concentrations were measured over 9 timepoints collected between 0 and 24 hours of incubation by liquid-chromatography-coupled mass spectrometry (LC–MS); details: 2 µM
[20] = The drug is tested on WLS-006 corresponding to human gut metagenome with ENA study accession number: PRJEB37062 and ENA sample accession number: ERS12561741 for biotransformation under anaerobic condition. The drug concentrations were measured over 9 timepoints collected between 0 and 24 hours of incubation by liquid-chromatography-coupled mass spectrometry (LC–MS); details: 2 µM
Note: call rule not given here.

CCCCC(=O)N(Cc1ccc(-c2ccccc2-c2nnn[nH]2)cc1)[C@H](C(=O)O)C(C)C
Bacterial Biotransformation [1]: Compound metabolized
Bacterial Biotransformation [2]: Compound metabolized
Bacterial Biotransformation [3]: Compound NOT metabolized
Bacterial Biotransformation [4]: Compound metabolized
Bacterial Biotransformation [5]: Compound metabolized
Bacterial Biotransformation [6]: Compound metabolized
Bacterial Biotransformation [7]: Compound NOT metabolized
Bacterial Biotransformation [8]: Compound metabolized
Bacterial Biotransformation [9]: Compound metabolized
Bacterial Biotransformation [10]: Compound metabolized
Bacterial Biotransformation [11]: Compound NOT metabolized
Bacterial Biotransformation [12]: Compound metabolized
Bacterial Biotransformation [13]: Compound metabolized
Bacterial Biotransformation [14]: Compound NOT metabolized
Bacterial Biotransformation [15]: Compound metabolized
Bacterial Biotransformation [16]: Compound NOT metabolized
Bacterial Biotransformation [17]: Compound metabolized
Bacterial Biotransformation [18]: Compound metabolized
Bacterial Biotransformation [19]: Compound NOT metabolized
Bacterial Biotransformation [20]: Compound metabolized

CCC(COC(=O)c1cc(OC)c(OC)c(OC)c1)(c1ccccc1)N(C)C.O=C(O)/C=C\C(=O)O (stereo unspecified)
Bacterial Biotransformation [1]: Compound metabolized
Bacterial Biotransformation [2]: Compound NOT metabolized
Bacterial Biotransformation [3]: Compound NOT metabolized
Bacterial Biotransformation [4]: Compound NOT metabolized
Bacterial Biotransformation [5]: Compound NOT metabolized
Bacterial Biotransformation [6]: Compound NOT metabolized
Bacterial Biotransformation [7]: Compound NOT metabolized
Bacterial Biotransformation [8]: Compound NOT metabolized
Bacterial Biotransformation [9]: Compound metabolized
Bacterial Biotransformation [10]: Compound NOT metabolized
Bacterial Biotransformation [11]: Compound NOT metabolized
Bacterial Biotransformation [12]: Compound metabolized
Bacterial Biotransformation [13]: Compound NOT metabolized
Bacterial Biotransformation [14]: Compound NOT metabolized
Bacterial Biotransformation [15]: Compound metabolized
Bacterial Biotransformation [16]: Compound NOT metabolized
Bacterial Biotransformation [17]: Compound NOT metabolized
Bacterial Biotransformation [18]: Compound NOT metabolized
Bacterial Biotransformation [19]: Compound NOT metabolized
Bacterial Biotransformation [20]: Compound NOT metabolized

COc1ccc(CCN(C)CCCC(C#N)(c2ccc(OC)c(OC)c2)C(C)C)cc1OC (stereo unspecified)
Bacterial Biotransformation [1]: Compound metabolized
Bacterial Biotransformation [2]: Compound NOT metabolized
Bacterial Biotransformation [3]: Compound NOT metabolized
Bacterial Biotransformation [4]: Compound metabolized
Bacterial Biotransformation [5]: Compound metabolized
Bacterial Biotransformation [6]: Compound metabolized
Bacterial Biotransformation [7]: Compound NOT metabolized
Bacterial Biotransformation [8]: Compound metabolized
Bacterial Biotransformation [9]: Compound metabolized
Bacterial Biotransformation [10]: Compound NOT metabolized
Bacterial Biotransformation [11]: Compound NOT metabolized
Bacterial Biotransformation [12]: Compound metabolized
Bacterial Biotransformation [13]: Compound metabolized
Bacterial Biotransformation [14]: Compound NOT metabolized
Bacterial Biotransformation [15]: Compound metabolized
Bacterial Biotransformation [16]: Compound metabolized
Bacterial Biotransformation [17]: Compound NOT metabolized
Bacterial Biotransformation [18]: Compound metabolized
Bacterial Biotransformation [19]: Compound NOT metabolized
Bacterial Biotransformation [20]: Compound NOT metabolized

O=c1[nH]c2ccccc2n1CCCN1CCC(n2c(=O)[nH]c3cc(Cl)ccc32)CC1 [DOMPERIDONE]
Bacterial Biotransformation [1]: Compound NOT metabolized
Bacterial Biotransformation [2]: Compound NOT metabolized
Bacterial Biotransformation [3]: Compound NOT metabolized
Bacterial Biotransformation [4]: Compound NOT metabolized
Bacterial Biotransformation [5]: Compound metabolized
Bacterial Biotransformation [6]: Compound NOT metabolized
Bacterial Biotransformation [7]: Compound NOT metabolized
Bacterial Biotransformation [9]: Compound NOT metabolized
Bacterial Biotransformation [11]: Compound NOT metabolized
Bacterial Biotransformation [12]: Compound NOT metabolized
Bacterial Biotransformation [13]: Compound NOT metabolized
Bacterial Biotransformation [14]: Compound NOT metabolized
Bacterial Biotransformation [15]: Compound NOT metabolized
Bacterial Biotransformation [16]: Compound NOT metabolized
Bacterial Biotransformation [17]: Compound NOT metabolized
Bacterial Biotransformation [18]: Compound NOT metabolized
Bacterial Biotransformation [19]: Compound NOT metabolized
Bacterial Biotransformation [20]: Compound NOT metabolized

C=CCN1CC[C@]23c4c5ccc(O)c4O[C@H]2C(=O)CC[C@@]3(O)[C@H]1C5 [NALOXONE]
Bacterial Biotransformation [1]: Compound NOT metabolized
Bacterial Biotransformation [2]: Compound NOT metabolized
Bacterial Biotransformation [3]: Compound NOT metabolized
Bacterial Biotransformation [4]: Compound NOT metabolized
Bacterial Biotransformation [5]: Compound NOT metabolized
Bacterial Biotransformation [6]: Compound NOT metabolized
Bacterial Biotransformation [7]: Compound NOT metabolized
Bacterial Biotransformation [8]: Compound NOT metabolized
Bacterial Biotransformation [9]: Compound NOT metabolized
Bacterial Biotransformation [10]: Compound NOT metabolized
Bacterial Biotransformation [11]: Compound NOT metabolized
Bacterial Biotransformation [12]: Compound NOT metabolized
Bacterial Biotransformation [13]: Compound NOT metabolized
Bacterial Biotransformation [14]: Compound NOT metabolized
Bacterial Biotransformation [15]: Compound NOT metabolized
Bacterial Biotransformation [16]: Compound NOT metabolized
Bacterial Biotransformation [17]: Compound NOT metabolized
Bacterial Biotransformation [18]: Compound NOT metabolized
Bacterial Biotransformation [19]: Compound NOT metabolized

NC(=O)N1c2ccccc2CC(=O)c2ccccc21 [OXCARBAZEPINE]
Bacterial Biotransformation [1]: Compound NOT metabolized
Bacterial Biotransformation [2]: Compound NOT metabolized
Bacterial Biotransformation [3]: Compound metabolized
Bacterial Biotransformation [4]: Compound NOT metabolized
Bacterial Biotransformation [5]: Compound NOT metabolized
Bacterial Biotransformation [6]: Compound NOT metabolized
Bacterial Biotransformation [7]: Compound NOT metabolized
Bacterial Biotransformation [8]: Compound NOT metabolized
Bacterial Biotransformation [9]: Compound metabolized
Bacterial Biotransformation [10]: Compound NOT metabolized
Bacterial Biotransformation [11]: Compound NOT metabolized
Bacterial Biotransformation [12]: Compound NOT metabolized
Bacterial Biotransformation [13]: Compound metabolized
Bacterial Biotransformation [14]: Compound NOT metabolized
Bacterial Biotransformation [15]: Compound NOT metabolized
Bacterial Biotransformation [16]: Compound metabolized
Bacterial Biotransformation [17]: Compound NOT metabolized
Bacterial Biotransformation [18]: Compound NOT metabolized
Bacterial Biotransformation [19]: Compound NOT metabolized
